# Test results: article PMC7206119, “RIP1 inhibition blocks inflammatory diseases but not tumor growth or metastases” (Cell Death and Differentiation, 2019)
# Tests used:
# Assay in all cases: biochemical
# Design in all cases: DiscoverX kinase panel, active-site competition binding (KINOMEscan type), percent of control at one concentration
# Settings in all cases: competition binding, percent of control
# [1] = molecular target: T1, PFTAIRE2 (Homo sapiens, UniProt Q96Q40)
# T1 construct: gene CDK15
# [2] = molecular target: MARK3 (Homo sapiens, UniProt P27448)
# [3] = molecular target: PRKX (Homo sapiens, UniProt P51817)
# Sequence of PRKX (P51817 whole entry): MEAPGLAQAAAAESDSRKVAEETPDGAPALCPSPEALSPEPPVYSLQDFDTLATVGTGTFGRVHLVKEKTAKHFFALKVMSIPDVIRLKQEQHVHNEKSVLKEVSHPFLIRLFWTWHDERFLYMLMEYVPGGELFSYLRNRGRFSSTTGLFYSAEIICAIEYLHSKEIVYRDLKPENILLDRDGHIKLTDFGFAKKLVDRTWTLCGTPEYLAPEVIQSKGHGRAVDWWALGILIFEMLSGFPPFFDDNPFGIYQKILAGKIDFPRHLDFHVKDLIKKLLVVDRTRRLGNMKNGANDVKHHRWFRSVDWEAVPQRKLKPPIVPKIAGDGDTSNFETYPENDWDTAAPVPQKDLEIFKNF
# [4] = molecular target: T2, AMPK-alpha2 (Homo sapiens, UniProt P54646)
# T2 construct: gene PRKAA2
# T2 sequence (P54646 whole entry): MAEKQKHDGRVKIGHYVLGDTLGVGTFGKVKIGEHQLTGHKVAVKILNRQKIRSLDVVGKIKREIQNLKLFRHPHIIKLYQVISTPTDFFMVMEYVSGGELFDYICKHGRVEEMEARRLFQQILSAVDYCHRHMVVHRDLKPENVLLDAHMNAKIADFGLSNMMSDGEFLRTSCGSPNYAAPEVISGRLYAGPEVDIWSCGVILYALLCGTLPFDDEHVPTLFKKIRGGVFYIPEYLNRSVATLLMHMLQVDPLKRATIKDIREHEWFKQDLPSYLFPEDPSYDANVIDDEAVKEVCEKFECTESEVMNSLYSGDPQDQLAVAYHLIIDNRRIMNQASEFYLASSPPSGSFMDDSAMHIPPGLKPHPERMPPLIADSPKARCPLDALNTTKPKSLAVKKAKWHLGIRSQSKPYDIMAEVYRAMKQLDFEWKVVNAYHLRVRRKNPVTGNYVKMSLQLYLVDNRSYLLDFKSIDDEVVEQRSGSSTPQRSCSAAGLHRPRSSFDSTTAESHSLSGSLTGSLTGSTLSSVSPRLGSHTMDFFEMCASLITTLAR
# [5] = molecular target: MAP3K15 (Homo sapiens, UniProt Q6ZN16)
# [6] = molecular target: EIF2AK1 (Homo sapiens, UniProt Q9BQI3)
# [7] = molecular target: T3, ADCK3 (Homo sapiens, UniProt Q8NI60)
# T3 construct: gene COQ8A
# [8] = molecular target: PIK3CB (Homo sapiens, UniProt P42338)
# [9] = molecular target: EGFR(S752-I759del) (Homo sapiens, UniProt P00533, DEL752-759)
# [10] = molecular target: DMPK (Homo sapiens, UniProt Q09013)
# Sequence of DMPK (Q09013 whole entry): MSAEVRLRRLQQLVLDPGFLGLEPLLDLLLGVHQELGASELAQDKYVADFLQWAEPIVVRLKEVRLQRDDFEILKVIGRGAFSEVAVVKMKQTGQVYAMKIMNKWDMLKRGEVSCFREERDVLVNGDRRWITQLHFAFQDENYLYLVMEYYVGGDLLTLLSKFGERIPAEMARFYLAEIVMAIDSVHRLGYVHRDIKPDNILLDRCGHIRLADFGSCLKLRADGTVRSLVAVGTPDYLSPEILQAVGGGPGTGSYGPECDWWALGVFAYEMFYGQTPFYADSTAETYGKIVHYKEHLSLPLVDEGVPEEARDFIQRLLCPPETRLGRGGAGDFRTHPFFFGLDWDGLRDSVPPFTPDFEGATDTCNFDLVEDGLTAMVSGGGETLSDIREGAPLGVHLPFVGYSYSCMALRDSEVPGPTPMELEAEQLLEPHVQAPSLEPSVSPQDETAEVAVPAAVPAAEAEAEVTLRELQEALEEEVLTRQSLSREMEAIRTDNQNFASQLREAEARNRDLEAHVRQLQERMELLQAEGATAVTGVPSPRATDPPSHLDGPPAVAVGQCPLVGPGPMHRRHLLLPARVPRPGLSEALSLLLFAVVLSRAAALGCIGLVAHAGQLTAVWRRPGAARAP
# [11] = molecular target: T4, MLK3 (Homo sapiens, UniProt Q16584)
# T4 construct: gene MAP3K11
# [12] = molecular target: HIPK1 (Homo sapiens, UniProt Q86Z02)
# Sequence of HIPK1 (Q86Z02 whole entry): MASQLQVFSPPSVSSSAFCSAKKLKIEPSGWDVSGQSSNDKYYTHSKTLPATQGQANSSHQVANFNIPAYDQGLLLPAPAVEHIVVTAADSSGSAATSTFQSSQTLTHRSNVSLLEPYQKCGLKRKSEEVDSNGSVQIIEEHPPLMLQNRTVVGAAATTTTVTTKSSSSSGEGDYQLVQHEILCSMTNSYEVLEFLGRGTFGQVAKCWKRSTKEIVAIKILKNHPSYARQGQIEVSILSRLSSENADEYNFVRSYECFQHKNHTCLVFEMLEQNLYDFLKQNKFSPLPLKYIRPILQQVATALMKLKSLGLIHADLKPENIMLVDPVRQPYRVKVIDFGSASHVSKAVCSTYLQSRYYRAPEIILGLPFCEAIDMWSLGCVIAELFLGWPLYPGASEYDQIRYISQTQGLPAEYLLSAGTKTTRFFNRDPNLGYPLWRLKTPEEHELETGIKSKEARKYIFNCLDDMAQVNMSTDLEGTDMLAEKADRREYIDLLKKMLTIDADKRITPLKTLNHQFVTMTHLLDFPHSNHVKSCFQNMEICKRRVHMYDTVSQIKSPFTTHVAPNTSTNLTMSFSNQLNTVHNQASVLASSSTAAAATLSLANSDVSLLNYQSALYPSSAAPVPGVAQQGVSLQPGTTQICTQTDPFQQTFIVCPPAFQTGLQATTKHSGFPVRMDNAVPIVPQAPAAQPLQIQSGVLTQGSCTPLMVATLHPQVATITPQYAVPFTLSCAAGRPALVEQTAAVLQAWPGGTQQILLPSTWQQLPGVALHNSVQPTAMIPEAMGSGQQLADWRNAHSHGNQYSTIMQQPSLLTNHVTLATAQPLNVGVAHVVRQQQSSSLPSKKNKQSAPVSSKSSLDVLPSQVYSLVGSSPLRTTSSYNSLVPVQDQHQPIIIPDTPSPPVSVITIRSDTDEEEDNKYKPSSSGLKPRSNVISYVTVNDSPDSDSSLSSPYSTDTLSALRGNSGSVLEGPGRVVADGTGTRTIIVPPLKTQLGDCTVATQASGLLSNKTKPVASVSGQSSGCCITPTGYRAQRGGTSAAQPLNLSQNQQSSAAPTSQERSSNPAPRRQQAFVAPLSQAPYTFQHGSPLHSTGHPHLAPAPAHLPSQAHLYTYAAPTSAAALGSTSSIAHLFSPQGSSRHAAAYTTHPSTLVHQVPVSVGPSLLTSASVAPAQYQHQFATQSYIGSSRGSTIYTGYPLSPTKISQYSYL
# [13] = molecular target: HIPK3 (Homo sapiens, UniProt Q9H422)
# [14] = molecular target: TTK (Homo sapiens, UniProt P33981)
# Sequence of TTK (P33981 whole entry): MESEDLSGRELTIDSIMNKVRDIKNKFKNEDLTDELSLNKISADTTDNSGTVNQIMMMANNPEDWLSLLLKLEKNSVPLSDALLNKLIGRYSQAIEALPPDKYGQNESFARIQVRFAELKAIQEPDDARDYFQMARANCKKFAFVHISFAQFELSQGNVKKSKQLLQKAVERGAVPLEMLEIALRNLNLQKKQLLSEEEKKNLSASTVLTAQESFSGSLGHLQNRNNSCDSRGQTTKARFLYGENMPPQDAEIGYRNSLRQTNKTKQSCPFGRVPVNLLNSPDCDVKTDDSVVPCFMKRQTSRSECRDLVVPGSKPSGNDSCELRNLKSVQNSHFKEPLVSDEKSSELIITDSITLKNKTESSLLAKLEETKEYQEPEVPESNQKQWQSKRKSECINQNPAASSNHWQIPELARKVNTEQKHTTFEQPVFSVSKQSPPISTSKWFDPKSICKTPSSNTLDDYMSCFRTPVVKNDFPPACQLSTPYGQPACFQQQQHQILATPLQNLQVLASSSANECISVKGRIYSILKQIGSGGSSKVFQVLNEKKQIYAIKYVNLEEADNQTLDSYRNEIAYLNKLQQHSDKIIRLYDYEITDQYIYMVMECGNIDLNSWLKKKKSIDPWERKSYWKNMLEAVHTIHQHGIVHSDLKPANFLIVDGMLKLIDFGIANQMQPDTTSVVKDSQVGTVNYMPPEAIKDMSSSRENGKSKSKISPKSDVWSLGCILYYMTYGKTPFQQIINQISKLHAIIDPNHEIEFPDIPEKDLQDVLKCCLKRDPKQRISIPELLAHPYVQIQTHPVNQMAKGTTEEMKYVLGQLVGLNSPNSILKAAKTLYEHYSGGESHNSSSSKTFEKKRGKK
# [15] = molecular target: NEK10 (Homo sapiens, UniProt Q6ZWH5)
# [16] = molecular target: T5, JAK1(JH2domain-pseudokinase) (Homo sapiens, UniProt P23458)
# T5 construct: JH2domain-pseudokinase
# [17] = molecular target: T6, RSK3(Kin.Dom.2-C-terminal) (Homo sapiens, UniProt Q15349)
# T6 construct: gene RPS6KA2; Kin.Dom.2-C-terminal
# T6 sequence (Q15349 whole entry): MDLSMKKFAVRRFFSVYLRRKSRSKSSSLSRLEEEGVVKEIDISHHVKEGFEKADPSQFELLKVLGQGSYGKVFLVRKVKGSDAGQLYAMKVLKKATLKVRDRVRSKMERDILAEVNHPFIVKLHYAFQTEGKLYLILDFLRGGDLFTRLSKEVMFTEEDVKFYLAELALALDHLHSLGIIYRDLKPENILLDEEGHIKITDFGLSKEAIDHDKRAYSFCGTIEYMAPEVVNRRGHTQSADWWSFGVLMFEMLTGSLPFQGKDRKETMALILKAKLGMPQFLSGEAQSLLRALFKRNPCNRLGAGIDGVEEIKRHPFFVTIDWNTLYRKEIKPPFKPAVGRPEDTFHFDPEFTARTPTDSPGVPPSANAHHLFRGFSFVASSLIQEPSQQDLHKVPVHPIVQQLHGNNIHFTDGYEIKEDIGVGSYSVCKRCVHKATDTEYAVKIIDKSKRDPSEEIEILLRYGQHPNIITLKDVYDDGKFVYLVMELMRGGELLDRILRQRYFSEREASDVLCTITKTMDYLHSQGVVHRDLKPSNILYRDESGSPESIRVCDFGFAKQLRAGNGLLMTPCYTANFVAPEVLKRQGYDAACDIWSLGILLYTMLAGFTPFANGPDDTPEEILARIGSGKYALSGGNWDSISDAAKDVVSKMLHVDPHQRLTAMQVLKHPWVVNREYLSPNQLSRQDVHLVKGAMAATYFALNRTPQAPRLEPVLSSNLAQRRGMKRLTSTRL
# [18] = molecular target: TRPM6 (Homo sapiens, UniProt Q9BX84)
# [19] = molecular target: T7, MST3 (Homo sapiens, UniProt Q9Y6E0)
# T7 construct: gene STK24
# T7 sequence (Q9Y6E0 whole entry): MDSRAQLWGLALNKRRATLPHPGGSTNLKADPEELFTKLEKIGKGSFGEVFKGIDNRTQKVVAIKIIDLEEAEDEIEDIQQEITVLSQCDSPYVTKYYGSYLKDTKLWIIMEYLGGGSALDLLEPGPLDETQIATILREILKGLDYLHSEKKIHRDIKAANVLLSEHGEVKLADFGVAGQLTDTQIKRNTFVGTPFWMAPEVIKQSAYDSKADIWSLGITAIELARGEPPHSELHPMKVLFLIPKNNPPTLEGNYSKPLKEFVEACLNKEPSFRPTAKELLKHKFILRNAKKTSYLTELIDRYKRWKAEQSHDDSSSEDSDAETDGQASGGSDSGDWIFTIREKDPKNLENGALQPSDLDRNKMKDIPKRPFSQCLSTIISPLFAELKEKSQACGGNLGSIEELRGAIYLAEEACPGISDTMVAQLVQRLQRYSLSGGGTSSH
# [20] = molecular target: CAMK4 (Homo sapiens, UniProt Q16566)
# [21] = molecular target: PIK3CA(E545A) (Homo sapiens, UniProt P42336, E545A)
smiles,measurement,setting,value
"COc1cc2c(cn1)N(C)C(=O)[C@@H](NC(=O)c1nc3n(n1)[C@H](c1ccccc1)CC3)CC2 [GNE684, (S)-N-((S)-7-methoxy-1-methyl-2-oxo-2,3,4,5-tetrahydro-1H-pyrido[3,4-b]azepin-3-yl)-5-phenyl-6,7-dihydro-5H-pyrrolo[1,2-b][1,2,4]triazole-2-carboxamide]",remaining binding at 10 µM,[1],100%
same,remaining binding at 10 µM,[2],100%
same,remaining binding at 10 µM,[3],99%
same,remaining binding at 10 µM,[4],81%
same,remaining binding at 10 µM,[5],94%
same,remaining binding at 10 µM,[6],100%
same,remaining binding at 10 µM,[7],98%
same,remaining binding at 10 µM,[8],100%
same,remaining binding at 10 µM,[9],97%
same,remaining binding at 10 µM,[10],83%
same,remaining binding at 10 µM,[11],100%
same,remaining binding at 10 µM,[12],82%
same,remaining binding at 10 µM,[13],100%
same,remaining binding at 10 µM,[14],100%
same,remaining binding at 10 µM,[15],100%
same,remaining binding at 10 µM,[16],48%
same,remaining binding at 10 µM,[17],98%
same,remaining binding at 10 µM,[18],87%
same,remaining binding at 10 µM,[19],99%
same,remaining binding at 10 µM,[20],86%
same,remaining binding at 10 µM,[21],100%
